In US20240391948A1, “NOVEL COMPOUND THAT INHIBITS TNF-ALPHA GENERATION AND INFLAMMASOME ACTIVITY AND PREPARATION METHOD THEREFOR” (SHAPERON INC., priority 2021, published 2024):

Tests used:
Format in all cases: cell-based
[1] = tested on: J774A.1 (Mouse BALB/c monocyte macrophage cell line) cells; assay: LPS-induced TNF-α secretion inhibition in J774A.1 cells; conditions: J774.A1, 1 μM compound, graded compared to taurodeoxycholic acid (positive control), read-out: TNF-α production inhibition grade
Outline: (§1)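 Grades (A >100%, B 50–100%, C 20–50%, D <20%) express cytokine suppression by 1 μM compound relative to taurodeoxycholic acid. LPS-induced TNF-α and LPS+ATP-induced IL-1β secretion were measured in murine J774A.1 macrophage cells.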

[2] = tested on: J774A.1 (Mouse BALB/c monocyte macrophage cell line) cells; assay: LPS+ATP-induced IL-1β secretion inhibition in J774A.1 cells; conditions: J774.A1, 1 μM compound, graded compared to taurodeoxycholic acid (positive control), read-out: IL-1β production inhibition grade
Outline: as §1

[3] = tested on: U937 cells (human monocytic cell line); assay: Pam2CSK4-induced TNF-α secretion inhibition in PMA-differentiated U937 cells; conditions: U-937, U937 cells differentiated with PMA, read-out: TNF-α production inhibition grade (IC50)
Outline: (§2)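 Inhibition is given as IC50 (μM) in A-D bands, using distinct thresholds for TNF-α and for IL-1β. Secretion followed Pam2CSK4 stimulation (TNF-α) or BzATP stimulation (IL-1β) of compound-pretreated, PMA-differentiated U937 macrophages.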

[4] = tested on: U937 cells (human monocytic cell line); assay: BzATP-induced IL-1β secretion inhibition in PMA-differentiated U937 cells; conditions: U-937, U937 cells differentiated with PMA, read-out: IL-1β production inhibition grade (IC50)
Outline: as §2

| SMILES | inhibition at 1 µM [1] [%] | inhibition at 1 µM [2] [%] | IC50 [3] [µM] | IC50 [4] [µM] |
| --- | --- | --- | --- | --- |
| C[C@H](CCC(=O)N(C)CCS(=O)(=O)O)[C@H]1CC[C@H]2[C@@H]3CC[C@@H]4CC(=O)CC[C@]4(C)[C@H]3CC[C@]12C [NC30004] | 20 to 50 | 20 to 50 | 1 to 2 | ≥ 0.2 |
| CC(C)[C@@H](CS(=O)(=O)O)NC(=O)CC[C@@H](C)[C@H]1CC[C@H]2[C@@H]3[C@H](O)C[C@@H]4C[C@H](O)CC[C@]4(C)[C@H]3C[C@H](O)[C@]12C [NC20016] | < 20 | > 100 | 1 to 2 | < 0.05 |
| C[C@H](CCC(=O)N[C@H](Cc1ccccc1)CS(=O)(=O)O)[C@H]1CC[C@H]2[C@@H]3CC[C@@H]4C[C@H](O)CC[C@]4(C)[C@H]3CC[C@]12C [NC10071] | < 20 | > 100 | < 0.5 | < 0.05 |
| CC[C@H]1[C@@H](O)[C@@H]2[C@H](C[C@H](O)[C@]3(C)[C@@H]([C@H](C)CCC(=O)N(CCO)CCS(=O)(=O)O)CC[C@@H]23)[C@@]2(C)CC[C@@H](O)C[C@@H]12 [NC50006] | < 20 | < 20 | ≥ 2 | < 0.05 |
| CC[C@H]1[C@@H](O)[C@@H]2[C@H](C[C@H](O)[C@]3(C)[C@@H]([C@H](C)CCC(=O)N[C@@H](CS(=O)(=O)O)c4ccccc4)CC[C@@H]23)[C@@]2(C)CC[C@@H](O)C[C@@H]12 [NC50019] | < 20 | 50 to 100 | 1 to 2 | ≥ 0.2 |
| C[C@H](CCC(=O)N1CC[C@H](S(=O)(=O)O)C1)[C@H]1CC[C@H]2[C@@H]3CC[C@@H]4C[C@H](O)CC[C@]4(C)[C@H]3C[C@H](O)[C@]12C [NC10048] | < 20 | 50 to 100 | < 0.5 | 0.05 to 0.1 |
| C[C@H](CCC(=O)N(CCN(C)C)CCS(=O)(=O)O)[C@H]1CC[C@H]2[C@@H]3CC[C@@H]4C[C@H](O)CC[C@]4(C)[C@H]3C[C@H](O)[C@]12C [NC10050] | < 20 | > 100 | < 0.5 | 0.05 to 0.1 |
| CC[C@H]1[C@@H](O)[C@@H]2[C@H](CC[C@]3(C)[C@@H]([C@H](C)CCC(=O)N[C@H](CS(=O)(=O)O)c4ccccc4)CC[C@@H]23)[C@@]2(C)CC[C@@H](O)C[C@@H]12 [NC40018] | < 20 | > 100 | < 0.5 | < 0.05 |
| C[C@H](CCC(=O)N[C@@H](CO)CS(=O)(=O)O)[C@H]1CC[C@H]2[C@@H]3[C@H](O)C[C@@H]4C[C@H](O)CC[C@]4(C)[C@H]3C[C@H](O)[C@]12C [NC20024] | < 20 | 20 to 50 | < 0.5 | ≥ 0.2 |
| CC[C@H]1[C@@H](O)[C@@H]2[C@H](CC[C@]3(C)[C@@H]([C@H](C)CCC(=O)N[C@@H](CO)CS(=O)(=O)O)CC[C@@H]23)[C@@]2(C)CC[C@@H](O)C[C@@H]12 [NC40024] | < 20 | < 20 | 0.5 to 1 | ≥ 0.2 |
| C[C@H](CCC(=O)N[C@@H]1CCCC[C@@H]1S(=O)(=O)O)[C@H]1CC[C@H]2[C@@H]3[C@H](O)C[C@@H]4C[C@H](O)CC[C@]4(C)[C@H]3C[C@H](O)[C@]12C [NC20026] | < 20 | 50 to 100 | 1 to 2 | 0.1 to 0.2 |
| CC[C@H]1[C@@H](O)[C@@H]2[C@H](CC[C@]3(C)[C@@H]([C@H](C)CCC(=O)N[C@H](CO)CS(=O)(=O)O)CC[C@@H]23)[C@@]2(C)CC[C@@H](O)C[C@@H]12 [NC40025] | 20 to 50 | 20 to 50 | 0.5 to 1 | 0.05 to 0.1 |
| C[C@H](CCC(=O)N[C@@H](C)CS(=O)(=O)O)[C@H]1CC[C@H]2[C@@H]3CC[C@@H]4C[C@H](O)CC[C@]4(C)[C@H]3C[C@H](O)[C@]12C [NC10043] | < 20 | > 100 | < 0.5 | 0.1 to 0.2 |
| C[C@H](CCC(=O)NC[C@@H](C)S(=O)(=O)O)[C@H]1CC[C@H]2[C@@H]3[C@H](O)C[C@@H]4C[C@H](O)CC[C@]4(C)[C@H]3C[C@H](O)[C@]12C [NC20023] | < 20 | < 20 | ≥ 2 | 0.05 to 0.1 |
| C[C@H](CCC(=O)N[C@H]1CCCC[C@H]1S(=O)(=O)O)[C@H]1CC[C@H]2[C@@H]3[C@H](O)C[C@@H]4C[C@H](O)CC[C@]4(C)[C@H]3C[C@H](O)[C@]12C [NC20027] | < 20 | > 100 | ≥ 2 | < 0.05 |
| C[C@H](CCC(=O)NCCC(=O)O)[C@H]1CC[C@H]2[C@@H]3CC[C@@H]4CC(=O)CC[C@]4(C)[C@H]3CC[C@]12C [NC30002] | < 20 | 50 to 100 | 1 to 2 | 0.1 to 0.2 |
| C[C@H](CCC(=O)NCCC(=O)O)[C@H]1CC[C@H]2[C@@H]3[C@H](O)C[C@@H]4C[C@H](O)CC[C@]4(C)[C@H]3C[C@H](O)[C@]12C [NC20002] | 50 to 100 | 50 to 100 | ≥ 2 | 0.1 to 0.2 |
| C[C@H](CCC(=O)N1CC[C@H](S(=O)(=O)O)C1)[C@H]1CC[C@H]2[C@@H]3CC[C@@H]4CC(=O)CC[C@]4(C)[C@H]3CC[C@]12C [NC30033] | < 20 | 20 to 50 | 0.5 to 1 | 0.05 to 0.1 |
| C[C@H](CCC(=O)N(C)CCS(=O)(=O)O)[C@H]1CC[C@H]2[C@@H]3CC[C@@H]4C[C@H](O)CC[C@]4(C)[C@H]3CC[C@]12C [NC10055] | < 20 | 50 to 100 | 1 to 2 | < 0.05 |
| CC[C@H]1[C@@H](O)[C@@H]2[C@H](CC[C@]3(C)[C@@H]([C@H](C)CCC(=O)N4CCC[C@H](S(=O)(=O)O)C4)CC[C@@H]23)[C@@]2(C)CC[C@@H](O)C[C@@H]12 [NC40009] | < 20 | < 20 | 1 to 2 | 0.1 to 0.2 |
| CC[C@H]1[C@@H](O)[C@@H]2[C@H](C[C@H](O)[C@]3(C)[C@@H]([C@H](C)CCC(=O)NC4(CS(=O)(=O)O)CC4)CC[C@@H]23)[C@@]2(C)CC[C@@H](O)C[C@@H]12 [NC50032] | < 20 | 50 to 100 | ≥ 2 | 0.05 to 0.1 |
| CC[C@H]1[C@@H](O)[C@@H]2[C@H](CC[C@]3(C)[C@@H]([C@H](C)CCC(=O)NCCC(=O)O)CC[C@@H]23)[C@@]2(C)CC[C@@H](O)C[C@@H]12 [NC40002] | < 20 | 20 to 50 | ≥ 2 | ≥ 0.2 |
| C[C@H](CCC(=O)N[C@H](CS(=O)(=O)O)c1ccccc1)[C@H]1CC[C@H]2[C@@H]3[C@H](O)C[C@@H]4C[C@H](O)CC[C@]4(C)[C@H]3C[C@H](O)[C@]12C [NC20018] | < 20 | < 20 | 1 to 2 | ≥ 0.2 |
| CC[C@H]1[C@@H](O)[C@@H]2[C@H](C[C@H](O)[C@]3(C)[C@@H]([C@H](C)CCC(=O)N[C@H](C)CS(=O)(=O)O)CC[C@@H]23)[C@@]2(C)CC[C@@H](O)C[C@@H]12 [NC50029] | < 20 | 50 to 100 | 0.5 to 1 | ≥ 0.2 |
| CC[C@H]1[C@@H](O)[C@@H]2[C@H](CC[C@]3(C)[C@@H]([C@H](C)CCC(=O)N[C@H](CC(C)C)CS(=O)(=O)O)CC[C@@H]23)[C@@]2(C)CC[C@@H](O)C[C@@H]12 [NC40031] | < 20 | < 20 | 1 to 2 | ≥ 0.2 |
| C[C@H](CCC(=O)N1CC[C@H](S(=O)(=O)O)C1)[C@H]1CC[C@H]2[C@@H]3CC[C@@H]4C[C@H](O)CC[C@]4(C)[C@H]3CC[C@]12C [NC10089] | < 20 | 20 to 50 | < 0.5 | ≥ 0.2 |
| C[C@H](CCC(=O)N(CCS(=O)(=O)O)Cc1cccnc1)[C@H]1CC[C@H]2[C@@H]3CC[C@@H]4C[C@H](O)CC[C@]4(C)[C@H]3C[C@H](O)[C@]12C [NC10051] | < 20 | 50 to 100 | 1 to 2 | 0.05 to 0.1 |
| CC[C@H]1[C@@H](O)[C@@H]2[C@H](CC[C@]3(C)[C@@H]([C@H](C)CCC(=O)NC(C)(C)CS(=O)(=O)O)CC[C@@H]23)[C@@]2(C)CC[C@@H](O)C[C@@H]12 [NC40013] | < 20 | > 100 | 1 to 2 | < 0.05 |
| CC[C@H]1[C@@H](O)[C@@H]2[C@H](CC[C@]3(C)[C@@H]([C@H](C)CCC(=O)N4CCC(S(=O)(=O)O)CC4)CC[C@@H]23)[C@@]2(C)CC[C@@H](O)C[C@@H]12 [NC40011] | < 20 | 20 to 50 | 0.5 to 1 | ≥ 0.2 |
